# Assay results: ChEMBL document CHEMBL6134828, “Discovery, synthesis, and biological mechanism evaluation of novel quinoline derivatives as potent NLRP3 inhibitors” (Eur J Med Chem, 2025)
# Biological target: NACHT, LRR and PYD domains-containing protein 3 (Mus musculus, UniProt Q8R4B8)
# Experiment: Inhibition of NLRP3 in mouse J774.A1 cells assessed as reduction IL-1beta release by ELISA
# Format: cell-based
# Chain of NACHT, LRR and PYD domains-containing protein 3 (Q8R4B8 whole entry, the tested form may be a part): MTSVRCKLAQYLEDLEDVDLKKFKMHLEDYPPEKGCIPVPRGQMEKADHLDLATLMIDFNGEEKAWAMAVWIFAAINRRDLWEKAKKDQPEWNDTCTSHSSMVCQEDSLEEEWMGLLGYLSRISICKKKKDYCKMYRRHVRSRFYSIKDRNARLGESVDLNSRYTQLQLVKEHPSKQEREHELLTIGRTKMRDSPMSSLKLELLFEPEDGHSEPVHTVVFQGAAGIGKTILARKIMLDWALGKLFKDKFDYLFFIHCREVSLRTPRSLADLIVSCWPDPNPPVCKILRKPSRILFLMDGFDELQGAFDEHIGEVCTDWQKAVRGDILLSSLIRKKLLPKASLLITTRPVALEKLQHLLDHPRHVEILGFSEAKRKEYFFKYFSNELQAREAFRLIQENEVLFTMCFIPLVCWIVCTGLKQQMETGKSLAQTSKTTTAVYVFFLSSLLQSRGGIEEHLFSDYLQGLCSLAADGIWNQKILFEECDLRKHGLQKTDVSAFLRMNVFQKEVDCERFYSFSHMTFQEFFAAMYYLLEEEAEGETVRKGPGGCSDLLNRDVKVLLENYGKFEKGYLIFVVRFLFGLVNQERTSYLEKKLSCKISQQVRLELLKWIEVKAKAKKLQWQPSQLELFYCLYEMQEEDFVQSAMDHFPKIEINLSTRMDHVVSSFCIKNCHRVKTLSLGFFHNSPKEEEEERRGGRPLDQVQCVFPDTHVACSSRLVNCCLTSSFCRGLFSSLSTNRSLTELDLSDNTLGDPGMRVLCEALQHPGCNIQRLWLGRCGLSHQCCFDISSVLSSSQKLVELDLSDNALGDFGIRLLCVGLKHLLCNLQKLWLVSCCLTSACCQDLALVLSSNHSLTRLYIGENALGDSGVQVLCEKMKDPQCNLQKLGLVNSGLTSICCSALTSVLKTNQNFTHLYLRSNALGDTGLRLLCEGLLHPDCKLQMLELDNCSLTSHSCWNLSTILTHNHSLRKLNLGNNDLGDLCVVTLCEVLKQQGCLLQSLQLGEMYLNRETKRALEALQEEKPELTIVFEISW
row,IC50 [nM],Compound
1,3000,COC(=O)[C@@H](NC(=O)c1cc(-c2ccccc2)nc2ccccc12)c1ccccc1
2,920,CC[C@H](NC(=O)c1c(C)c(-c2cccc(F)c2)nc2cc(Cl)ccc12)c1ccccc1
3,7070,Cc1ccc(O)cc1NC(=O)c1cc(-c2ccccc2)nc2ccccc12
4,1360,CC[C@H](NC(=O)c1c(C)c(-c2cccc(F)c2)nc2ccc(F)cc12)c1ccccc1
5,1300,CC[C@H](NC(=O)c1cc(-c2ccccc2)nc2ccccc12)c1ccccc1 [AZD-7624]
6,890,CC[C@H](NC(=O)c1c(C)c(-c2cccc(Cl)c2)nc2ccccc12)c1ccccc1
7,4310,Cc1ccccc1CNC(=O)c1cc(-c2ccccc2)nc2ccccc12
8,2820,CC[C@H](NC(=O)c1cc(-c2cccc(F)c2)nc2ccccc12)c1ccccc1
9,720,CC[C@H](NC(=O)c1c(C)c(-c2cccc(F)c2)nc2c(NC(C)=O)cccc12)c1ccccc1
10,1200,CC[C@H](NC(=O)c1c(C)c(-c2cccc(F)c2)nc2cc(OC)ccc12)c1ccccc1
11,2750,CC[C@H](NC(=O)c1c(C)c(-c2ccc(C(F)(F)F)cc2)nc2ccccc12)c1ccccc1
12,7950,O=C(N[C@@H]1CCc2ccccc21)c1cc(-c2ccccc2)nc2ccccc12
13,1040,CC[C@H](NC(=O)c1c(C)c(-c2cccc(F)c2)nc2ccc(OC)cc12)c1ccccc1
14,1270,CC[C@H](NC(=O)c1c(C)c(-c2ccccc2)nc2ccccc12)c1ccccc1 [SB-222200]
15,11400,CCN(CC)CCCC(C)NC(=O)c1cc(-c2ccccc2)nc2ccccc12 (centres undefined)
16,920,CC[C@H](NC(=O)c1c(C)c(-c2cccc(F)c2)nc2cc(Br)ccc12)c1ccccc1
17,420,CC[C@H](NC(=O)c1c(C)c(-c2cccc(F)c2)nc2c(NS(=O)(=O)C3CC3)cccc12)c1ccccc1
18,1120,CC[C@H](NC(=O)c1c(C)c(-c2ccc(F)cc2)nc2ccccc12)c1ccccc1
19,13800,Cc1ccccc1NC(=O)c1cc(-c2ccccc2)nc2ccccc12
